Here are results for one molecule from BindingDB's records for doi:10.1021/jm00388a021 (1987).

The Ki is the equilibrium dissociation constant of an inhibitor or competing ligand from its target. A higher Ki goes with weaker binding.

The target in experiment [1] is Thymidine kinase (Herpes simplex virus 2). Kind of experiment: Compound was evaluated for Kinetic constant for viral thymidine kinase of Herpes simplex virus (HSV) -2.
Experiment [2] deals with Thymidine kinase (Herpes simplex virus 1). Briefly: Compound was evaluated for Kinetic constant for viral thymidine kinase of Herpes simplex virus (HSV) -1.

For `O=c1[nH]c(=O)n([C@@H]2O[C@H](CO)[C@@H](O)[C@@H]2F)cc1I` [FIALURIDINE], the Ki was determined as 0.95 µM in experiment [1] and 0.14 µM in experiment [2].
